Measured values: ChEMBL document CHEMBL4002627, “Quinolidene based monocarbonyl curcumin analogues as promising antimycobacterial agents: Synthesis and molecular docking study” (Bioorg Med Chem Lett, 2017)
≈ marks a conversion by molar mass, not a printed value.

Key:
[1] = system: Mycobacterium tuberculosis; assay: Antimycobacterial activity against dormant state of Mycobacterium tuberculosis H37Ra by two fold dilution method; assay type: functional
[2] = system: Mycobacterium tuberculosis; assay: Antimycobacterial activity against dormant state of Mycobacterium tuberculosis H37Ra assessed as growth inhibition at 30 ug/ml after 12 days by XTT reduction menadione assay relative to control; assay type: functional; conditions: 288 h, read-out: GI
[3] = system: Mycobacterium tuberculosis; assay: Antimycobacterial activity against dormant state of Mycobacterium tuberculosis H37Ra assessed as growth inhibition at 10 ug/ml after 12 days by XTT reduction menadione assay relative to control; assay type: functional; conditions: 288 h, read-out: GI
[4] = system: Mycobacterium tuberculosis; assay: Antimycobacterial activity against dormant state of Mycobacterium tuberculosis H37Ra assessed as growth inhibition at 3 ug/ml after 12 days by XTT reduction menadione assay relative to control; assay type: functional; conditions: 288 h, read-out: GI
[5] = Cytotoxicity against human MCF7 cells assessed as growth inhibition at 30 ug/ml after 48 hrs by MTT assay relative to control; assay type: cell-based; conditions: read-out: GI
[6] = Cytotoxicity against human MCF7 cells assessed as growth inhibition at 10 ug/ml after 48 hrs by MTT assay relative to control; assay type: cell-based; conditions: read-out: GI
[7] = Cytotoxicity against human MCF7 cells assessed as growth inhibition at 3 ug/ml after 48 hrs by MTT assay relative to control; assay type: cell-based; conditions: read-out: GI
[8] = Cytotoxicity against human A549 cells assessed as growth inhibition at 30 ug/ml after 48 hrs by MTT assay relative to control; assay type: cell-based; conditions: read-out: GI
[9] = Cytotoxicity against human A549 cells assessed as growth inhibition at 10 ug/ml after 48 hrs by MTT assay relative to control; assay type: cell-based; conditions: read-out: GI
[10] = Cytotoxicity against human A549 cells assessed as growth inhibition at 3 ug/ml after 48 hrs by MTT assay relative to control; assay type: cell-based; conditions: read-out: GI
[11] = Cytotoxicity against human HCT116 cells assessed as growth inhibition at 30 ug/ml after 48 hrs by MTT assay relative to control; assay type: cell-based, HCT-116; conditions: read-out: GI
[12] = Cytotoxicity against human HCT116 cells assessed as growth inhibition at 10 ug/ml after 48 hrs by MTT assay relative to control; assay type: cell-based, HCT-116; conditions: read-out: GI
[13] = Cytotoxicity against human HCT116 cells assessed as growth inhibition at 3 ug/ml after 48 hrs by MTT assay relative to control; assay type: cell-based, HCT-116; conditions: read-out: GI
[14] = (§1) Cytotoxicity against human MCF7 cells assessed as growth inhibition after 48 hrs by MTT assay; assay type: cell-based; conditions: MCF7 cells
MCF7 = assay: as §1; assay type: cell-based; conditions: mcf7, 48 h
[15] = (§2) Cytotoxicity against human A549 cells assessed as growth inhibition after 48 hrs by MTT assay; assay type: cell-based; conditions: A549 cells
A549 = assay: as §2; assay type: cell-based; conditions: a549, 48 h
[16] = (§3) Cytotoxicity against human HCT116 cells assessed as growth inhibition after 48 hrs by MTT assay; assay type: cell-based, HCT-116; conditions: HCT116 cells
HCT-116 = assay: as §3; assay type: cell-based; conditions: hct-116, 48 h
[17] = Selectivity index, ratio of GI90 for human MCF7 cells to MIC90 for dormant state of Mycobacterium tuberculosis H37Ra; assay type: toxicity; conditions: read-out: Selectivity Index
[18] = Selectivity index, ratio of GI90 for human A549 cells to MIC90 for dormant state of Mycobacterium tuberculosis H37Ra; assay type: toxicity; conditions: read-out: Selectivity Index
[19] = Selectivity index, ratio of GI90 for human HCT116 cells to MIC90 for dormant state of Mycobacterium tuberculosis H37Ra; assay type: toxicity; conditions: read-out: Selectivity Index
[20] = Selectivity index, ratio of GI90 for human MCF7 cells to MIC90 for dormant state of dormant state of Mycobacterium bovis BCG; assay type: toxicity; conditions: read-out: Selectivity Index
[21] = Selectivity index, ratio of GI90 for human A549 cells to MIC90 for dormant state of dormant state of Mycobacterium bovis BCG; assay type: toxicity; conditions: read-out: Selectivity Index
[22] = Selectivity index, ratio of GI90 for human HCT116 cells to MIC90 for dormant state of dormant state of Mycobacterium bovis BCG; assay type: toxicity; conditions: read-out: Selectivity Index
Escherichia coli = assay: Antibacterial activity against Escherichia coli ATCC […] after 8 hrs; assay type: functional
Pseudomonas fluorescens = assay: Antibacterial activity against Pseudomonas fluorescens ATCC 13525 after 8 hrs; assay type: functional; conditions: ATCC 13525, 8 h
Staphylococcus aureus = assay: Antibacterial activity against Staphylococcus aureus ATCC 29213 after 12 hrs; assay type: functional; conditions: ATCC 29213, 12 h
Bacillus subtilis = assay: Antibacterial activity against Bacillus subtilis ATCC 23857 after 12 hrs; assay type: functional; conditions: ATCC 23857, 12 h

SMILES: COc1ccc2cc(/C=C3\CNC/C(=C\c4cc5ccc(OC)cc5nc4Cl)C3=O)c(Cl)nc2c1
- MIC50 [1]: 2.8 µg/mL (≈ 5.53 µM)
- MIC90 [1]: > 30 µg/mL
- inhibition of growth at 30 µg/mL [2]: 65.6%
- inhibition of growth at 10 µg/mL [3]: 54.2%
- inhibition of growth at 3 µg/mL [4]: 50.9%
- inhibition at 48 h, 30 ug/ml [5]: 60.9%
- inhibition at 48 h, 10 ug/ml [6]: 52.1%
- inhibition at 48 h, 3 ug/ml [7]: 28%
- inhibition at 48 h, 30 ug/ml [8]: 36.3%
- inhibition at 48 h, 10 ug/ml [9]: 29.8%
- inhibition at 48 h, 3 ug/ml [10]: 3.8%
- inhibition at 48 h, 30 ug/ml [11]: 67.7%
- inhibition at 48 h, 10 ug/ml [12]: 50.9%
- inhibition at 48 h, 3 ug/ml [13]: 26.9%
- GI50 at 48 h [14]: > 100 µg/mL
- GI90 (MCF7): > 100 µg/mL
- GI50 at 48 h [15]: > 100 µg/mL
- GI90 (A549): > 100 µg/mL
- GI50 at 48 h [16]: > 100 µg/mL
- GI90 (HCT-116): > 100 µg/mL
- selectivity ratio [17]: > 3
- selectivity ratio [18]: > 3
- selectivity ratio [19]: > 3
- selectivity ratio [20]: > 37
- selectivity ratio [21]: > 37
- selectivity ratio [22]: > 37
- MIC50 (Escherichia coli): > 30 µg/mL
- MIC90 (Escherichia coli): > 30 µg/mL
- MIC50 (Pseudomonas fluorescens): > 30 µg/mL
- MIC90 (Pseudomonas fluorescens): > 30 µg/mL
- MIC50 (Staphylococcus aureus): > 30 µg/mL
- MIC90 (Staphylococcus aureus): > 30 µg/mL
- MIC50 (Bacillus subtilis): > 30 µg/mL
- MIC90 (Bacillus subtilis): > 30 µg/mL

SMILES: COc1ccc2cc(/C=C3\CN(C)C/C(=C\c4cc5ccc(OC)cc5nc4Cl)C3=O)c(Cl)nc2c1
- MIC50 [1]: 2.3 µg/mL (≈ 4.42 µM)
- MIC90 [1]: 7.8 µg/mL (≈ 15 µM)
- inhibition of growth at 30 µg/mL [2]: 98.9%
- inhibition of growth at 10 µg/mL [3]: 100%
- inhibition of growth at 3 µg/mL [4]: 66.1%
- inhibition at 48 h, 30 ug/ml [5]: 44.1%
- inhibition at 48 h, 10 ug/ml [6]: -5.5%
- inhibition at 48 h, 3 ug/ml [7]: -13.4%
- inhibition at 48 h, 30 ug/ml [8]: 0%
- inhibition at 48 h, 10 ug/ml [9]: 0%
- inhibition at 48 h, 3 ug/ml [10]: 0%
- inhibition at 48 h, 30 ug/ml [11]: 14.1%
- inhibition at 48 h, 10 ug/ml [12]: -1.3%
- inhibition at 48 h, 3 ug/ml [13]: -8.6%
- GI50 at 48 h [14]: > 100 µg/mL
- GI90 (MCF7): > 100 µg/mL
- GI50 at 48 h [15]: > 100 µg/mL
- GI90 (A549): > 100 µg/mL
- GI50 at 48 h [16]: > 100 µg/mL
- GI90 (HCT-116): > 100 µg/mL
- selectivity ratio [17]: > 12
- selectivity ratio [18]: > 12
- selectivity ratio [19]: > 12
- selectivity ratio [20]: > 10
- selectivity ratio [21]: > 10
- selectivity ratio [22]: > 10
- MIC50 (Escherichia coli): > 30 µg/mL
- MIC90 (Escherichia coli): > 30 µg/mL
- MIC50 (Pseudomonas fluorescens): > 30 µg/mL
- MIC90 (Pseudomonas fluorescens): > 30 µg/mL
- MIC50 (Staphylococcus aureus): > 30 µg/mL
- MIC90 (Staphylococcus aureus): > 30 µg/mL
- MIC50 (Bacillus subtilis): > 30 µg/mL
- MIC90 (Bacillus subtilis): > 30 µg/mL
